Measured values published in patent publication US9274101B2 (BIOLOG, Inc., priority 2001, dated 2016).
Where two headings read alike, the source gives them in different places. Where a SMILES comes first, the peptide text is derived from it.

How the values were obtained:
[1] = system: Salmonella typhimurium auxotrophs hisF645 and pyrCΔ73; assay type: cell-based
ten strains of E. coli = assay type: cell-based, Escherichia coli; further: key: +: indicates that the organism tested was capable of utilizing the carbon source listed; −: indicates that the organism tested was not capable of utilizing the carbon source listed; indicates weak positive reactions
E. coli MG1655 [2] = assay type: cell-based, Escherichia coli
HepG2 cells = HepG2 cells cultured on CYTODEX 3 microcarriers, energy sources; assay type: cell-based, human; settings: Homo sapiens, HepG2, 68 h, read-out: Responses of HepG2 Cells Cultured on Microcarriers After 68 hours in Culture and a 4 hour Color Development Period
Experimental: In this Example, methods for testing adherent cells cultured in suspension, for their ability to use multiple carbon sources are described. HepG2 cells were cultured as described in Example 30.
HepG2 cells were harvested by trypsinization for 3 minutes in 0.25% trypsin-1 mM EDTA and resuspended in an equal volume of culture medium. A viable cell count was obtained by trypan blue exclusion and the appropriate volume of the cell suspension to have 2.7×10^6 cells/0.1 gm CYTODEX 3 (Sigma C3275) microcarrier beads was determined. Microcarrier beads had been previously prepared by 1) rehydration in calcium-magnesium free (CMF) DPBS for 3 hours, 2) autoclaving for 15 minutes, and 3) washing twice in MEM without serum. The cell suspension was added to the beads in a 50 mL tube, and the volume adjusted to 5 mL. Cells were allowed to attach for 1 hour in an atmosphere of 5% CO2, 90-100% humidity, and 37° C., with resuspension every 15 minutes. The microcarriers were transferred to a 100×15 mm Petri dish in a total volume of 20 mL. Cultures were maintained as stationary cultures until used for assay.
The thixotropic suspending agent, methylcellulose (1500 cps, Sigma M0555), was included in the medium to keep the microcarriers suspended so that they could be accurately pipetted. The methylcellulose was prepared by autoclaving in 20 mL tissue culture water for 30 minutes, then mixing by shaking for 1 hour. The initial concentration of methylcellulose was […]. The methylcellulose was then diluted 1:1 in 2× DME with or without glucose, then supplemented with 10% HI FBS; this yields a methylcellulose concentration of 1.36%. Beads were transferred to a 50 mL tube, allowed to settle and resuspended in DPBS. The washed beads were then resuspended in DME with 10% HI FBS and penicillin-streptomycin but without glucose, L-glutamine, sodium pyruvate, or phenol red. An equal volume of 1.36% methylcellulose was added and mixed by pipetting.
For the assay, 70 μL of DME with 10% HI FBS and penicillin-streptomycin but without glucose, L-glutamine, sodium pyruvate, or phenol red were added to each well, followed by 30 μL of the appropriate dilution of each test energy source. Stocks of 133 mM of each test chemical were prepared in tissue culture grade water, sterile filtered, and dilutions were prepared in a master plate so that, upon dilution into a regular 96-well MICROPLATE a total well volume of 200 μL, the final concentrations would be 0.033 to 20 mM. Negative control wells received 30 μL of tissue culture grade water. One hundred μL of beads were pipetted into each well. For each plate containing energy sources and cells, a second, control plate containing only energy sources was prepared. Plates were incubated at 5% CO2, 90-100% humidity, and 37° C. for 68 hours prior to addition of the MTS/MPMS colorometric reagent (10 μL/well). The color formed in each well 4-8 hours after addition of the colorimetric reagent, was measured with a plate reader at 490 nm with a reference wavelength of 650 nm. OD values from the control plate were subtracted from the OD values obtained with cells prior to normalizing the data to % negative control (cells without added energy source).

E. coli MG1655 [3] = assay type: cell-based, Escherichia coli; remark: listed apart in the source
HL-60 cells = test: HL-60 responses in PM1a, PM6, PM7 and PM8 plates; assay type: cell-based, human; settings: PM6, PM7, PM8; positive = greater than 130% of the negative control
Experimental: In this Example, methods for testing unattached cells for their ability to use various carbon sources including di and tri-peptides are described.
After washing, HL-60 cells were resuspended in DME-R. An aliquot of the cell suspension was counted by trypan blue exclusion and the cell density was adjusted to 1×10^6/mL. Fifty μL of DME-R were added to each well of the appropriate number of half area, 96-well plates. The cells were plated at a volume of 50 μL/well, giving a final cell density of 5×10^4/well. PM1a, MP6, PM7, and PM8 MICROPLATE testing plates were inoculated (these MICROPLATE testing plates are available from Biolog under license). For each plate containing chemicals and cells, a second, control plate containing only chemicals was prepared. All wells contained a total volume of 100 μL. Plates were incubated at 5% CO2, 90-100% humidity, and 37° C. for 1 hour prior to addition of the MTS/MPMS colorometric reagent (5 μL/well). The color formed in each well after an additional 24 hour incubation period, was measured on a plate reader at 490 nm with a reference wavelength of 650 nm. OD values from the control plate were subtracted from the OD values obtained with cells prior to normalizing the data to % negative control (cells without added energy source).

E. coli (MG1655) = test: Sensitivity in ES1, ES2, ES3 MICROPLATE panels in the presence of vancomycin or sulfamethoxazole (synergy/antagonism); assay type: cell-based, Escherichia coli
[4] = in the presence of 235 μg/ml sulfamethoxazole

Compound	growth stimulation (well color) [1]	suitability as phosphorus source (growth, purple color) (E. coli MG1655 [3])	also measured
Nc1ccn([C@H]2C[C@H](O)[C@@H](CO)O2)c(=O)n1 [2-deoxycytidine]	turned purple	–	–
O=c1ccn([C@H]2C[C@H](O)[C@@H](CO)O2)c(=O)[nH]1 [2-deoxyuridine]	turned purple	–	–
Nc1ncnc2c1ncn2[C@H]1C[C@H](O)[C@@H](CO)O1 [2′-deoxy-adenosine]	turned weakly purple	–	carbon source utilization (ten strains of E. coli): +
Nc1nc2c(ncn2[C@H]2C[C@H](O)[C@@H](CO)O2)c(=O)[nH]1 [2′deoxyguanosine]	turned weakly purple	–	–
O=c1ccn([C@@H]2O[C@H](CO)[C@@H](O)[C@H]2O)c(=O)[nH]1 [Uridine]	turned purple	–	carbon source utilization (ten strains of E. coli): +; suitability as nitrogen source (growth, purple color) (E. coli MG1655 [2]): not suitable; activity at 30 µM (HepG2 cells; Conc. 0.03 mM): 102%; activity at 100 µM (HepG2 cells; Conc. 0.10 mM): 109%; activity at 330 µM (HepG2 cells; Conc. 0.33 mM): 99%; activity at 1000 µM (HepG2 cells; Conc. 1.00 mM): 109%; activity at 3300 µM (HepG2 cells; Conc. 3.3 mM): 106%; activity at 10000 µM (HepG2 cells; Conc. 10 mM): 94.8%; activity at 15000 µM (HepG2 cells; Conc. 15 mM): 74.1%; activity at 20000 µM (HepG2 cells; Conc. 20 mM): 31.9%
Nc1ncnc2c1ncn2[C@@H]1O[C@H](CO)[C@@H](OP(=O)(O)O)[C@H]1O [adenosine 3-monophosphate]	turned weakly purple	positive	–
Nc1ncnc2c1ncn2[C@@H]1O[C@H](COP(=O)(O)O)[C@@H](O)[C@H]1O [adenosine 5′-monophosphate]	turned weakly purple	not suitable	–
Nc1ncnc2c1ncn2[C@@H]1O[C@H](CO)[C@@H](O)[C@H]1OP(=O)(O)O [adenosine-2′-monophosphate]	turned weakly purple	positive	–
C[C@H](N)C(=O)N[C@@H](CCC(N)=O)C(=O)O [ala-gln] (H-Ala-Gln-OH)	–	–	suitability as nitrogen source (growth, purple color) (E. coli MG1655 [2]): positive; response of HL-60 cells to peptides (HL-60 cells): positive response
O=[N+]([O-])c1ncc[nH]1 [azomycin]	–	–	change of sensitivity to the panel compound (E. coli (MG1655)): increased sensitivity
N[C@@H](C(=O)N[C@@H]1C(=O)N2C(C(=O)O)=C(Cl)CS[C@H]12)c1ccccc1 [cefaclor]	–	–	change of sensitivity to the panel compound (E. coli (MG1655); [4]): increased sensitivity
Cc1nnc(SCC2=C(C(=O)O)N3C(=O)[C@@H](NC(=O)Cn4cnnn4)[C@H]3SC2)s1 [cefazolin]	–	–	change of sensitivity to the panel compound (E. coli (MG1655); in the presence of 10 μg/ml vancomycin): increased sensitivity; change of sensitivity to the panel compound (E. coli (MG1655); [4]): increased sensitivity
N[C@@H](CS)C(=O)NCC(=O)O [cys-gly]	–	–	suitability as sulfur source (growth, purple color) (E. coli MG1655 [3]): positive; response of HL-60 cells to peptides (HL-60 cells): positive response
Nc1ccn([C@@H]2O[C@H](CO)[C@@H](O)[C@H]2OP(=O)(O)O)c(=O)n1 [cytidine 2′-monophosphate]	turned purple	not suitable	–
Nc1ccn([C@@H]2O[C@H](CO)[C@@H](OP(=O)(O)O)[C@H]2O)c(=O)n1 [cytidine 3′-monophosphate]	turned purple	positive	–
Nc1ccn([C@@H]2O[C@H](COP(=O)(O)O)[C@@H](O)[C@H]2O)c(=O)n1 [cytidine 5′-monophosphate]	turned purple	positive	–
Nc1ccn([C@@H]2O[C@H](CO)[C@@H](O)[C@H]2O)c(=O)n1 [cytidine]	turned purple	–	–
Nc1cc[nH]c(=O)n1 [cytosine]	turned purple	–	suitability as nitrogen source (growth, purple color) (E. coli MG1655 [2]): not suitable
Nc1nc2nc[nH]c2c(=O)[nH]1 [guanine]	turned weakly purple	–	–
Nc1nc2c(ncn2[C@@H]2O[C@H](CO)[C@@H](O)[C@H]2OP(=O)(O)O)c(=O)[nH]1 [guanosine 2′-monophosphate]	turned weakly purple	positive	–
Nc1nc2c(ncn2[C@@H]2O[C@H](COP(=O)(O)O)[C@@H](O)[C@H]2O)c(=O)[nH]1 [guanosine 5′-monophosphate]	turned weakly purple	positive	–
C[C@@H](O)[C@H](N)C(=O)N[C@@H](CO)C(=O)O [thr-ser] (H-Thr-Ser-OH)	–	–	response of HL-60 cells to peptides (HL-60 cells): positive response
C[C@H](NC(=O)[C@@H](N)Cc1ccc(O)cc1)C(=O)O [tyr-ala]	–	–	response of HL-60 cells to peptides (HL-60 cells): positive response
N[C@@H](Cc1ccc(O)cc1)C(=O)N[C@@H](Cc1ccccc1)C(=O)O [tyr-phe] (H-Tyr-Phe-OH)	–	–	response of HL-60 cells to peptides (HL-60 cells): positive response
CC(C)[C@H](NC(=O)[C@@H](N)Cc1ccc(O)cc1)C(=O)O [tyr-val] (H-Tyr-Val-OH)	–	–	response of HL-60 cells to peptides (HL-60 cells): positive response
O=c1cc[nH]c(=O)[nH]1 [uracil]	turned purple	–	suitability as nitrogen source (growth, purple color) (E. coli MG1655 [2]): not suitable
O=c1ccn([C@@H]2O[C@H](CO)[C@@H](OP(=O)(O)O)[C@H]2O)c(=O)[nH]1 [uridine 3′-monophosphate]	turned purple	positive	–
O=c1ccn([C@@H]2O[C@H](COP(=O)(O)O)[C@@H](O)[C@H]2O)c(=O)[nH]1 [uridine 5′-monophosphate]	turned purple	positive	–
CC(C)[C@H](N)C(=O)N[C@@H](CCC(N)=O)C(=O)O [val-gln] (H-Val-Gln-OH)	–	–	response of HL-60 cells to peptides (HL-60 cells): positive response
CC(C)[C@H](N)C(=O)N[C@@H](Cc1ccc(O)cc1)C(=O)N[C@H](C(=O)O)C(C)C [val-tyr-val] (H-Val-Tyr-Val-OH)	–	–	response of HL-60 cells to peptides (HL-60 cells): positive response
